Laboratory results taken from PubChem BioAssay (NCI).
“And” between values parts separate entries of the source, which are not always exact repeats. Equal entries are not always repeated.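 Test compounds were applied to cells in 96-well plates for 48 hours at 5 doses. GI50: concentration for 50% inhibition of growth. TGI marks complete inhibition of growth.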

Experiments:
Assay in all cases: growth of human tumour cells (NCI), 48 h
CAKI-1 renal = tested on: CAKI-1 renal
MALME-3M melanoma = tested on: MALME-3M melanoma
MDA-MB-435 = tested on: MDA-MB-435
786-0 renal = tested on: 786-0 renal
A549 NSCLC = tested on: A549 NSCLC
HCC-2998 colon = tested on: HCC-2998 colon
RXF 393 renal = tested on: RXF 393 renal
SF-295 CNS = tested on: SF-295 CNS
MDA-MB-231 breast = tested on: MDA-MB-231 breast

Compound	GI50 (CAKI-1 renal) [µM]	TGI (CAKI-1 renal) [µM]	GI50 (MALME-3M melanoma) [µM]	TGI (MALME-3M melanoma) [µM]	GI50 (MDA-MB-435) [µM]	TGI (MDA-MB-435) [µM]	GI50 (786-0 renal) [µM]	TGI (786-0 renal) [µM]	GI50 (A549 NSCLC) [µM]	TGI (A549 NSCLC)	GI50 (HCC-2998 colon) [µM]	TGI (HCC-2998 colon) [µM]	GI50 (RXF 393 renal) [µM]	TGI (RXF 393 renal) [µM]	GI50 (SF-295 CNS) [µM]	TGI (SF-295 CNS)	GI50 (MDA-MB-231 breast) [µM]	TGI (MDA-MB-231 breast) [µM]
CC(=O)c1c(O)ccc2c(C)c(C(=O)O)oc12	> 100	> 100	> 100	> 100	> 100	> 100	> 100	> 100	> 100	> 100 µM	55.8	> 100	> 100	> 100	> 100	> 100 µM		
COc1cc2c3c(n(CCCNC(=O)OCC4c5ccccc5-c5ccccc54)c(=O)c2cc1OC)-c1cc2c(cc1C3=O)OCO2	4.05	> 100	93.3	> 100	> 100	> 100	37.7	> 100	> 100	> 100 µM	> 100	> 100	20.1	> 73.9	0.751	> 100 µM	15.9	> 74.2
C/C1=C\CC[C@@]2(C)O[C@@H]2C[C@@H]2[C@H](C/C(C)=C/CC1)OC(=O)C21CCN=N1 (some centres not stated)	> 100	> 100		> 75	> 100	> 100	> 100	> 100	> 100	75 µM and > 100 µM		> 75	> 100	> 100	> 100	75 µM and > 100 µM	> 100	> 100
COc1cc2c3c(n(CCCCNC(=O)OCC4c5ccccc5-c5ccccc54)c(=O)c2cc1OC)-c1cc2c(cc1C3=O)OCO2	5.3	> 100	> 100	> 100	64.9	> 100	4.67	28.1	17.4	> 100 µM	14.9	> 100	15.9	58.6	> 100	> 100 µM	26.5	> 100
CO/N=C(\COc1ccc2c(c1)oc(=O)c1cc(OC)ccc12)c1cccc(OC)c1	> 100	> 100	> 100	> 100	> 100	> 100	> 100	> 100	> 100	> 100 µM	> 100	> 100	> 100	> 100	> 100	> 100 µM	> 100	> 100
S=P1(c2ccccc2)Nc2ccc(Cl)cc2N1 (configuration not stated)		> 100		> 100				> 100		> 100 µM		> 100				> 100 µM		
N#CCCN(CCC#N)c1ccc(/C=N\c2nc(-c3ccccc3)cs2)cc1		> 100		> 100				> 100		> 100 µM				> 100		> 100 µM		
Cc1ccc(-c2nc3c(C(=O)NCCN(C)C)cccc3[nH]2)cc1		> 100						> 100		34.5 µM		29.4		24.1		53.7 µM		
N#CCc1ccc(/C(C#N)=C2/OC(=N)C(c3ccc(CC#N)cc3)C2=O)cc1 (configuration not stated)		> 100		> 100				> 100		> 100 µM				> 100		> 100 µM		
Cc1ccc(/C=C/C(=O)c2ccc(N)cc2)c(C)c1	1.72	3.18	1.87	3.57	4.01	15.5	1.88	3.45	17.6	37.5 µM	15.6	30.6	5.56	17.9	19.8	40.2 µM	2.68	6.75
O=C(Nc1ccc([N+](=O)[O-])cc1C(=O)O)c1ccc([N+](=O)[O-])cc1				> 100				> 100		> 100 µM		> 100				> 100 µM		
COc1ccc(/C(=N\O)c2cc(OC)c(OC)c(OC)c2)c(OC)c1N	4.38	> 100	8.5	> 100	0.653	4.65	6.77	> 100	6.26	> 100 µM	3.29	> 100	2.79	> 100	2.37	> 100 µM	4.6	> 100
Cc1cc(Cl)ccc1NC(=O)CC1SC(N)=NC1=O (configuration not stated)		> 100		> 100				> 100		> 100 µM		> 100		> 100		> 100 µM		
CCC[CH2][Sn]1([CH2]CCC)[O]C(=O)c2cccc(OC)c2[O]1	0.0732	0.775	0.14	0.633			0.554	1.91	1.76	3.37 µM	0.99	2.15			1.08	2.27 µM		
O=C1C2C(C(=O)N1c1ccccc1)C1(c3ccccc3)OC2(c2ccccc2)c2ccccc21 (configuration not stated)		> 100		> 100				> 100		> 100 µM		> 100		> 100		> 100 µM		
